The text below walks through data of PMC9862037, “Interactions of Mycotoxin Alternariol with Cytochrome P450 Enzymes and OATP Transporters” (Metabolites, 2022).

In one series the target is T1, CYP1A2 (Homo sapiens, UniProt P05177).
T1 construct: purchased Abcam ab211075
The series can be described thus: biochemical. The procedure:
CYP1A2 Inhibitor Assay Kit (Abcam; Cambridge, UK) was applied following the manufacturer’s description, where the inhibitory action of 0.000, 0.001, 0.010, 0.050, 0.10, 0.20, 0.50, 1.25, 3.0, 10, and 25 μM AOH concentrations were tested.
IC50 values were calculated by sigmoidal fitting (Hill1), using the Origin (version 2018, OriginLab Corporation, Northampton, MA, USA) software.

For series [1], the target named is T2, OATP1B1 (Homo sapiens, UniProt Q9Y6L6). The series can be described thus: cell-based. Further details: expressed in transfected cells; host or cells: A431. As to conditions: A431-OATP1B1; pyranine 10 µM; pH 5.5; 15 min; read-out: IC50, OATP1B1 inhibition. The procedure: A431 cell lines overexpressing human OATPs (1A2, 1B1, 1B3, or 2B1) and their mock transfected controls were generated earlier. A431 cells expressed no or negligible OATPs compared to the overexpressing cell lines. Cells were cultured in Dulbecco’s modified Eagle medium (DMEM, Thermo Fisher Scientific, Waltham, MA, USA) with 10% fetal bovine serum, 2 mM L-glutamine, 100 U/mL penicillin, and 100 µg/mL streptomycin at 37 °C, with 5% CO2. OATP expression was regularly monitored (based on the transport activity of transfected cells), and the cells were used up to 20 passages.
T2 sequence (Q9Y6L6 whole entry): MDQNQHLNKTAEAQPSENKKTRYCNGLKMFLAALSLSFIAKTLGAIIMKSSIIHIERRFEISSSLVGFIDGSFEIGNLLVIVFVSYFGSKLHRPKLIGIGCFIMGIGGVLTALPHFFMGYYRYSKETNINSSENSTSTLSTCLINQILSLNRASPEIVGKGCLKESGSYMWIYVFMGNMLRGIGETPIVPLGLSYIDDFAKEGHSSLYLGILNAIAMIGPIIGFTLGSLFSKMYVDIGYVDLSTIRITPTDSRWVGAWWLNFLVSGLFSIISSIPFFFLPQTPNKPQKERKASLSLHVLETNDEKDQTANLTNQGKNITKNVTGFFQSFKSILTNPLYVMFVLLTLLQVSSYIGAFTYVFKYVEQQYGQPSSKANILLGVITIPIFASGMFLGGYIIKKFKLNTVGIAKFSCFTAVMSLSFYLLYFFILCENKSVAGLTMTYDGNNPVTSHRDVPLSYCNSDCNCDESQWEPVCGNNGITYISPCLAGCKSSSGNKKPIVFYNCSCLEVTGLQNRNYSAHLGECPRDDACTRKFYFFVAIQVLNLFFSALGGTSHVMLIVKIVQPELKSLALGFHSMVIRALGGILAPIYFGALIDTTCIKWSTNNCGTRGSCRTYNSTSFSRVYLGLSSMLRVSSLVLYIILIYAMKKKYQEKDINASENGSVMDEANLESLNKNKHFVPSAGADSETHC
Interaction between OATPs (1A2, 1B1, 1B3, and 2B1) and AOH was measured in an indirect transport assay with pyranine or sulforhodamine 101 as fluorescent probes. A431 cell overexpressing OATPs or their mock transfected controls were seeded on 96-well plates one day prior to the measurements in 200 µL DMEM in 8 × 10^4 cells/well density. […] Fluorescence was measured in an Enspire plate reader (Perkin Elmer, Waltham, MA, USA) in Ex/Em wavelengths 460/510 nm for pyranine and 586/605 nm for sulforhodamine 101. Bottom reading was applied with two horizontal (X) and two vertical (Y) points, measurement height was 3 mm with 200 flashes. IC50 values were calculated by sigmoidal fitting (Hill1), using the Origin (version 2018, OriginLab Corporation, Northampton, MA, USA) software.

Series [2] concerns the target T2, OATP1B1. Type of series: cell-based. On the set-up: expressed in transfected cells; host or cells: A431. As to conditions: 2, 5 or 10 µM AOH; 15 min; pH 5.5. The procedure: The A431 cell line overexpressing OATP1B1 or mock transfected control were trypsinized, and counted with automated cell counter (TC10, BIORAD, Hercules, CA, USA). The cells were washed with 1 mL buffer (pH 5.5; described above) and centrifuged for 5 min at 1500 g. After the supernatant was removed, 2 × 10^6 cells in 50 µL volume of the same buffer were handed out into separate Eppendorf tubes, then 50 µL of AOH solutions (diluted in buffer, pH 5.5) was added (final concentrations: 2, 5, or 10 µM). The cells were incubated for 15 min at 37 °C in shaking water bath. The reaction was stopped with 1 mL ice-cold PBS, after which the tubes were centrifuged for 5 min at 1500 g and 4 °C. The supernatant was removed, and the cells were washed with 1 mL ice-cold PBS, then the cell pellet was stored at −80 °C until analyses.
Before HPLC measurements, cell pellets were dissolved in 100 μL of 1 M NaOH solution with vigorous vortexing. After 15 min sonication, the solution was neutralized with 100 μL of 1 M HCl, then 200 μL acetonitrile was added. […] Thereafter, the supernatant was directly analyzed with HPLC-FLD (see details in Section 2.7).
To examine the OATP1B1-mediated uptake of AOH in A431 cells, our recently reported magnesium-sensitized HPLC-FLD method was applied. […] AOH was quantified using 345 nm and 455 nm excitation and emission wavelengths, respectively. […]

T1 sequence (P05177 whole entry): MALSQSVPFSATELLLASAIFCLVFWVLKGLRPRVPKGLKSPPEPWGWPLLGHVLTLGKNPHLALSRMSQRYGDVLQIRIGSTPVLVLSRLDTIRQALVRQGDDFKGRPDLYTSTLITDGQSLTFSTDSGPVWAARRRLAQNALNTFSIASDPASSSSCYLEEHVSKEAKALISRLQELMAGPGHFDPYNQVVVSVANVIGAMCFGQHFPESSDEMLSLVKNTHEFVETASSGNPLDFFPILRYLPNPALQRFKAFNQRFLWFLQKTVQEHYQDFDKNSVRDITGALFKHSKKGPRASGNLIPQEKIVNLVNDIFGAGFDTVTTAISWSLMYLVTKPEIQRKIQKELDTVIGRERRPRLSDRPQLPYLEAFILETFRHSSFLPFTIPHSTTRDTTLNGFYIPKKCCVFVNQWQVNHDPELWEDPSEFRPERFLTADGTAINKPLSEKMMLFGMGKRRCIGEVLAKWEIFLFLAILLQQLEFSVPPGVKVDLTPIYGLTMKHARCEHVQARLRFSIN

By IC50 is commonly meant the concentration that inhibits the measured activity by half. Turning to `Cc1cc(O)cc2oc(=O)c3c(O)cc(O)cc3c12` [AOH, Alternariol], on CYP1A2 (0.05 μM AOH, p < 0.01), the “CYP1A2 inhibition at 0.05 μM” value was “statistically significant”. The “CYP1A2 inhibition at 10 μM” value on CYP1A2 (10 μM AOH) is reported as “close to complete”. Further, the IC50 on CYP1A2 (fluorometric kit, AOH 0-25 μM, read-out: IC50, CYP1A2 inhibition) came to 150 nM; at OATP1B1 [1] it was 2000 nM. The “cellular AOH levels in OATP1B1 expressing vs mock cells” value on OATP1B1 [2] was “higher cellular AOH levels”.
